Usually viability stands for the share of living cells, or the viability signal relative to a control.

Data set [1] has as its system LLC-PK1 cells. Nature of the data set: Protective activity for renal cells against AAPH-induced oxidative damage (MTT viability). Format: cell-based. Conditions: 10 mM AAPH. From the text: Renal cells, i.e., LLC-PK1 cell lines, are vulnerable to oxidative damage, and AAPH, which is a radical releasing agent, combines with oxygen molecules at a very rapid speed to produce a peroxyl radical and trigger lipid peroxidation, resulting in cytotoxicity (Miki et al., Arch. Biochem. Biophy., 258(2), 373-380, 1987). Thus, a protective activity for renal cells may be evaluated using such an oxidative damage of the LLC-PK1 cell lines using AAPH.
A protective effect for nephrotoxicity was evaluated using renal cells (LLC-PK1) with reference to a method reported in the publication (Yokozawa et al., Food Chem., 48, pp5068-5073, 2000) as follows.
First, the LLC-PK1 cells were cultured in an incubator with conditions of 37° C., 95% air, and 5% CO2 by using a DMEM/F12 medium (Gibco BRL Life Technologies, Grand Island, NY, USA) supplemented with 5% fetal bovine serum (Gibco BRL Life Technologies), 50 units/ml of penicillin G, and 50 μg/ml of streptomycin (Gibco BRL Life Technologies). The incubated LLC-PK1 cells were introduced into a 96-well incubation plate at a concentration of 10^4 […] and then stabilized for 2 hours. Afterwards, a radical generating reagent (i.e., 10 mM AAPH dissolved in a medium) was added to each well and cultured for 24 hours, and 50 μl of an MTT (1 mg/ml) reagent was then added to each well and incubated at 37° C. 4 hours thereafter, the medium containing MTT was removed and 100 μl of dimethyl sulfoxide was added to each well. Then, absorbance of the sample was measured using a detection wavelength of 540 nm in a SPECTRAmax 340PC (Molecular Devices, Sunnyvale, Calif., USA) microplate reader and a viability of the LLC-PK1 cells was measured using the absorbance thereof.

Data set [2] is described as follows: DPPH radical scavenging ability (antioxidative activity). To be noted: 60 μM DPPH, 30 minutes; FIGS. 5 to 13. Format: biochemical. Here is the method: A DPPH radical scavenging ability was evaluated using a modified method from that described by Hatano et al (Hatano et al., Chem. Pharm. Bull., 37(8), pp 2016-2021, 1989). 100 μl of 60 μM DPPH was added to 100 μl of each of a plurality of sample solutions, the resultant solution was stirred and left for 30 minutes, and the absorbance of the resultant mixture was measured at 540 nm. An antioxidative activity (electron donating ability) was confirmed by measuring a decreasing ratio in absorbances of experimental groups comparing with a control of the sample solutions.

Marks after values point to notes of the source that are not given here.

As for `N=C(N)NN` [aminoguanidine], in data set [1] (Sus scrofa, sample 10 μg/ml, 24 hours, MTT, read-out: Cell viability), the viability at 10 µg/mL worked out at 86.7 ± 14.2%. The viability at 100 µg/mL in data set [1] (Sus scrofa, sample 100 μg/ml, 24 hours, MTT, read-out: Cell viability) was 88 ± 4.1%.
For `CC(C)=CCC[C@](C)(O[C@@H]1O[C@H](CO)[C@@H](O)[C@H](O)[C@H]1O)[C@H]1CC[C@]2(C)[C@@H]1[C@H](O)C[C@@H]1[C@@]3(C)CC[C@H](O)C(C)(C)[C@@H]3[C@@H](O[C@@H]3O[C@H](CO)[C@@H](O)[C@H](O)[C@H]3O[C@@H]3O[C@@H](C)[C@H](O)[C@@H](O)[C@H]3O)C[C@]12C` [ginsenoside Re], the “DPPH radical scavenging ability (in words)” value in data set [2] is “low reactive oxygen scavenging ability”. Besides, in data set [1], the “protective activity for renal cells (in words)” value was “inhibited cell damage at a high concentration”. In addition, in data set [1] (sample 10 μg/ml, 24 hours, MTT), the Cell viability is 89.6 ± 9.7^a %.

These data come from patent US20130178436A1, “COMPOSITION FOR PREVENTING, IMPROVING, OR TREATING RENAL DISEASE INCLUDING MAILLARD BROWNING REACTION PRODUCTS OF PANAX SPECIES PLANT EXTRACT” (Korea Institute of Science and Technology, priority 2012, published 2013).
